# Assay results published in US6589985B2, “Carbamate compounds for use in preventing or treating movement disorders” (Ortho-McNeil Pharmaceutical, Inc., priority 2001, dated 2003).
# Tests used:
# [1] = tested on: harmaline-induced tremor; experiment: Harmaline-induced tremors in rats; type: in vivo, Sprague-Dawley rats; settings: for Tremor Score Median: harmaline 6 mg/kg i.p. 60 min later, observed 30 min, vehicle median 6.00, p<0.01 vs vehicle
# Excerpt: Harmaline-induced tremor in rats is a commonly accepted animal model that is predictive of essential tremor and related movement disorders in human (Miwa H, et. al., Differential expression of c-Fos following administration of two tremorgenic agents: harmaline and oxotremorine, NeuroReport, 2000, 11 (11), 2385-2390; Stanford J A and Fowler S C, At low doses, harmaline increases forelimb tremor in the rat, Neurosci. Lett., 1998, 241 (1), 41-44; Sinton C M, The effectiveness of different isomers of octanol as blockers of harmaline-induced tremor, Pfluegers Arch., 1989, 414 (1), 31-6).
# An enantiomer of Formula (Ib) was evaluated for efficacy in treating essential tremor and related movement disorders with doses up to 30 mg/kg. The enantiomer of Formula (Ib) or vehicle (0.5% hydroxypropyl methylcellulose) was administered orally by gavage in a dose volume equivalent to 5 mL/kg to Sprague-Dawley rats (135 to 275 g). Harmaline (6 mg/kg in volume of 5 mL/kg, i.p.) was administered 60 min thereafter. Immediately after the harmaline administration, rats were placed individually in a blinded fashion in plastic cages on wood-chip bedding and observed for 30 minutes. Appearance of tremors was scored using a nine-item checklist. The checklist includes scoring for: tremors at rest, tremors during locomotion, intermittent tremors, continuous tremors, tremors provoked by tail-restraint, generalized tremors (head, body and tail), tremors of the head only, tremors of the body only and tremors of the tail only. Signs observed in rats treated with vehicle or test compound are compared by ranking tremor quality and severity.
# Tremor provoked following tail-restraint was assigned a score =1. Tremors that appear continuously were assigned a score =2, while tremors that appear intermittently were assigned a score =1. The appearance of generalized tremors were assigned a score =2, while a score =1 was assigned to tremor that involves only the head, body or tail of the rat. The severity of tremor is scored subjectively as mild in intensity or as moderate or marked. […]
# [2] = tested on: essential tremor; settings: nine patients with essential tremor; cited from earlier work
# [3] = tested on: essential tremor; settings: open-label report, essential tremor patients; cited from earlier work
structure (smiles),measurement,setting,value
NC(=O)OC[C@@H](O)c1ccccc1Cl [Formula (Ib)],Tremor Score Median,[1]; 20 mg/kg p.o.,2.00
same,Tremor Score Median,[1]; 30 mg/kg p.o.,1.20
same,reduction in the tremor score in drug-treated groups compared to the vehicle-treated group,"[1]; Kruskal-Wallis nonparametric one-way method, rats, p.o.",significant
CC1(C)O[C@@H]2[C@@H](CO[C@@]3(COS(N)(=O)=O)OC(C)(C)O[C@@H]23)O1 [Topiramate],patient self-rating after topiramate therapy,[2],Eight patients rated themselves as better and with less disability
"NCC1(CC(=O)O)CCCCC1 [gabapentin, Gabapentin]",effect on tremor,[3],reduced tremor in five patients
